The source of these data is patent US10934263B2, “Charged ion channel blockers and methods for use” (Nocion Therapeutics, Inc., priority 2019, dated 2021).

The target of data set [1] is T1, NaV1.7 (Homo sapiens, UniProt Q15858).
T1 construct: expressed in transfected cells; tetracycline-inducible, kept under hygromycin and blasticidin
Put plainly: Automated patch clamp (Qube 384), internal block of NaV1.7 in HEK293 cells. The settings on record: compound in internal solution, read-out: Nav1.7 Intracellular Inhibition (IC50). It counts as cell-based. In a few lines:
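Tetracycline-induced HEK293 cells, 22° C; CsF-based internal (pH 7.3), compound dissolved in internal solution, exchanged after baseline 5 Hz pulsing (−100 to −20 mV, 10 ms), then recorded 10 min. Remaining current averaged from last 3 points versus Step 2 baseline, rundown-corrected with non-drug cells; IC50 from Hill fit.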

Data set [2] in a line: PAMPA membrane permeability assay. It counts as in vitro ADME. The note with it: PAMPA permeability coefficient, GIT lipid, buffer pH 7.4, 4 hours incubation. In a few lines: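 Passive permeability across GIT lipid-coated artificial membrane; compounds at 50 μM in pH 7.4 buffer in donor wells, incubated 4 h. Donor, acceptor and reference concentrations read by UV spectroscopy, permeability coefficient calculated from spectral AUCs.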
(In general: PAMPA measures passive passage across an artificial lipid membrane.)

T1 sequence (Q15858 whole entry): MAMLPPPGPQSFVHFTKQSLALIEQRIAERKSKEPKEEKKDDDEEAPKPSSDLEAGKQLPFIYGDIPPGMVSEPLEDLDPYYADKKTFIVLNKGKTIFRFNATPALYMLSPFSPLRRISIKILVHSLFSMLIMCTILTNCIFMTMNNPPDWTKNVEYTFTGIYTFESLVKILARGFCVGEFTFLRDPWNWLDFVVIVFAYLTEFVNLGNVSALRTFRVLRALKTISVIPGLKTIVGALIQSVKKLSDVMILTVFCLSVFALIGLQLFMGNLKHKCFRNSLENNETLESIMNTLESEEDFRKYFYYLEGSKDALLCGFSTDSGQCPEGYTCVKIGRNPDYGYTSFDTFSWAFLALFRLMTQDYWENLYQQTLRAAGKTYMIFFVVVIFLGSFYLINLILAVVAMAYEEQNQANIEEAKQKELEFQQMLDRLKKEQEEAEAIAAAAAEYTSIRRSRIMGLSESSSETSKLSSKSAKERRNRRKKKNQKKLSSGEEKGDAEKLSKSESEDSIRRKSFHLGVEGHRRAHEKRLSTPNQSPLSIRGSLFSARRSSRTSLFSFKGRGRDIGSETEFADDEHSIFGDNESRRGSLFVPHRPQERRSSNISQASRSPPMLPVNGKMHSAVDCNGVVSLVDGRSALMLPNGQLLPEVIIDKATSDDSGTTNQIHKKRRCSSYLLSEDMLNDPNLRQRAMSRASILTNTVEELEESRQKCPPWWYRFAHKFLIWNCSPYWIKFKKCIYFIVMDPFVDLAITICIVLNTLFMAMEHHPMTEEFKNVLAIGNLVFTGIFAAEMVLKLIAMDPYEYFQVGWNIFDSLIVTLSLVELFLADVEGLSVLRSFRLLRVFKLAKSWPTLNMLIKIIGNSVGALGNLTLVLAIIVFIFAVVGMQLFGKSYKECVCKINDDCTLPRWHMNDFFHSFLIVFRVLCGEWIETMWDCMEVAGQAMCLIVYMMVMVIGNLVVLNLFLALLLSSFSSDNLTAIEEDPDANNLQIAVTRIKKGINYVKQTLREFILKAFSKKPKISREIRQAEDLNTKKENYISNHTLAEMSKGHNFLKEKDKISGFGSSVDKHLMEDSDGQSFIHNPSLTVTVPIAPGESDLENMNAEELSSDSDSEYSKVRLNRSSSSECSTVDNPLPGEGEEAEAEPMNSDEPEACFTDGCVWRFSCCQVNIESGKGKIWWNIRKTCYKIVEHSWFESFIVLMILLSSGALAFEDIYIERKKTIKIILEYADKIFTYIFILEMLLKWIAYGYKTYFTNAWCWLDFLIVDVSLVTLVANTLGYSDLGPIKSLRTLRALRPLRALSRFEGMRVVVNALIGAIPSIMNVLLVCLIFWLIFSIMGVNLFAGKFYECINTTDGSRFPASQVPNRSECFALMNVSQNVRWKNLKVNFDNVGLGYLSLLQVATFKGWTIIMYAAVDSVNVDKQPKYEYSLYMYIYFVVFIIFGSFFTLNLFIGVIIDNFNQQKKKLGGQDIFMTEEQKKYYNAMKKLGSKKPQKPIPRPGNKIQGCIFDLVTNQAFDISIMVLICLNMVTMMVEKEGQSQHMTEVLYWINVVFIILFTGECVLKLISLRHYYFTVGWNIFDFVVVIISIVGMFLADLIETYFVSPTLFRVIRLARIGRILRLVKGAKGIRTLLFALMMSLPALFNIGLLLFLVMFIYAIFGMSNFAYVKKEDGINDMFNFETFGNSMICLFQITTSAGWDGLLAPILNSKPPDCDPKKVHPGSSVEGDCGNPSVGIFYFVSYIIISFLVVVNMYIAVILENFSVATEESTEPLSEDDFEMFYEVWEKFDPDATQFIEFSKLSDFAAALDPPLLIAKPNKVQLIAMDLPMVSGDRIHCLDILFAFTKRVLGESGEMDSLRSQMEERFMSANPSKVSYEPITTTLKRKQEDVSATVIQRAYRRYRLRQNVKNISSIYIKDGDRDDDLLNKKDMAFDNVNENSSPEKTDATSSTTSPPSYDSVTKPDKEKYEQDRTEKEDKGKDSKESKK

For the molecule `Cc1cccc(C)c1NC(=O)C[n+]1cccc(S(=O)(=O)N(C)C)c1` [Compound 47], the IC50 (usually the concentration that inhibits the measured activity by half) in data set [1] is 1 to 3 µM. The “PAMPA (10^−6 cm/s)” value in data set [2] was “+ (<0.1 10^−6 cm/s)”.

With `Cc1cccc(C)c1NC(=O)C(CC(C)C)[n+]1ccccc1` (stereo not drawn) [Compound 108], the IC50 in data set [1] was in the range of 1 to 3 µM. Moreover, the “PAMPA (10^−6 cm/s)” value in data set [2] was “++ (0.1-2.0 10^−6 cm/s)”.

In the case of `Cc1cccc(C)c1NC(=O)C[n+]1cccc(S(C)(=O)=O)c1` [Compound 46], the IC50 in data set [1] was in the range of 3 to 10 µM. Further, the “PAMPA (10^−6 cm/s)” value in data set [2] is on record as “+ (<0.1 10^−6 cm/s)”.

As for `COC(=O)c1c(F)c[n+](CC(=O)Nc2c(C)cccc2C)cc1F` [Compound 89], the IC50 in data set [1] was 3 to 10 µM. Besides, the “PAMPA (10^−6 cm/s)” value in data set [2] is recorded as “+ (<0.1 10^−6 cm/s)”.

Turning to `Cc1cccc(C)c1NC(=O)C[n+]1cc(OCc2ccccc2)ccc1Cl` [Compound 103], the half-maximal inhibitory concentration (IC50) in data set [1] was in the range of 3 to 10 µM. The “PAMPA (10^−6 cm/s)” value in data set [2] is on record as “+ (<0.1 10^−6 cm/s)”.

For the molecule `Cc1cccc(C)c1NC(=O)C[n+]1cccn1CC1CC1` [Compound 73], the IC50 in data set [1] was in the range of 1 to 3 µM. In addition, in data set [2], the “PAMPA (10^−6 cm/s)” value is reported as “+ (<0.1 10^−6 cm/s)”.

For the molecule `Cc1cccc(C)c1NC(=O)C[n+]1cccc(Cc2ccccc2)c1` [Compound 34], in data set [1], the IC50 was below 1 µM. For the same molecule, the “PAMPA (10^−6 cm/s)” value in data set [2] is on record as “++ (0.1-2.0 10^−6 cm/s)”.

For the molecule `Cc1cccc(C)c1NC(=O)C[n+]1cc(F)cc(-c2ccccc2)c1` [Compound 77], the IC50 in data set [1] was below 1 µM. Besides, the “PAMPA (10^−6 cm/s)” value in data set [2] is reported as “+ (<0.1 10^−6 cm/s)”.

Turning to `CCn1c(C)cc[n+]1CC(=O)Nc1c(C)cccc1C` [Compound 104], the IC50 in data set [1] was 1 to 3 µM. The “PAMPA (10^−6 cm/s)” value in data set [2] was “+ (<0.1 10^−6 cm/s)”.

As for `Cc1cccc(C)c1NC(=O)C[n+]1cccn1CC#N` [Compound 69], the IC50 in data set [1] was in the range of 10 to 30 µM. Also, the “PAMPA (10^−6 cm/s)” value in data set [2] is “+ (<0.1 10^−6 cm/s)”.

As for `CCOC(=O)c1cc(C)[n+](CC(=O)Nc2c(C)cccc2C)n1C` [Compound 84], the half-inhibitory concentration (IC50) in data set [1] was 3 to 10 µM. Besides, in data set [2], the “PAMPA (10^−6 cm/s)” value is given as “+ (<0.1 10^−6 cm/s)”.

With `Cc1cccc(C)c1NC(=O)C[n+]1cccc(C(F)(F)F)c1` [Compound 66], the IC50 in data set [1] fell in the range of 1 to 3 µM. In addition, in data set [2], the “PAMPA (10^−6 cm/s)” value is “++ (0.1-2.0 10^−6 cm/s)”.

For the molecule `CCNc1ccc[n+](CC(=O)Nc2c(C)cccc2C)c1` [Compound 50], the half-maximal inhibitory concentration (IC50) in data set [1] lay within 1 to 3 µM. In addition, the “PAMPA (10^−6 cm/s)” value in data set [2] was “+ (<0.1 10^−6 cm/s)”.

In the case of `CNC(=O)Cc1ccc[n+](CC(=O)Nc2c(C)cccc2C)c1` [Compound 33], in data set [1], the IC50 was 1 to 3 µM. Besides, the “PAMPA (10^−6 cm/s)” value in data set [2] is on record as “++ (0.1-2.0 10^−6 cm/s)”.

As to `CCCn1ccc(C)[n+]1CC(=O)Nc1c(C)cccc1C` [Compound 101], in data set [1], the IC50 was in the range of 3 to 10 µM. In addition, in data set [2], the “PAMPA (10^−6 cm/s)” value is on record as “+ (<0.1 10^−6 cm/s)”.

For the molecule `Cc1cccc(C)c1NC(=O)C(Cc1ccccc1)[n+]1ccccc1` (stereo not drawn) [Compound 106], the IC50 in data set [1] is 1 to 3 µM. In data set [2], the “PAMPA (10^−6 cm/s)” value was “+ (<0.1 10^−6 cm/s)”.

In the case of `CCOC(=O)Cn1cc(C)c[n+]1CC(=O)Nc1c(C)cccc1C` [Compound 76], the IC50 in data set [1] lay in the range of 3 to 10 µM. Moreover, the “PAMPA (10^−6 cm/s)” value in data set [2] was “+ (<0.1 10^−6 cm/s)”.

In the case of `Cc1cccc(C)c1NC(=O)C[n+]1cc2ccccc2n1C` [Compound 54], the IC50 in data set [1] was 3 to 10 µM. In data set [2], the “PAMPA (10^−6 cm/s)” value was “++ (0.1-2.0 10^−6 cm/s)”.

Turning to `CCOC(=O)CCCn1ccc[n+]1CC(=O)Nc1c(C)cccc1C` [Compound 75], the IC50 in data set [1] is below 1 µM. The “PAMPA (10^−6 cm/s)” value in data set [2] is recorded as “+ (<0.1 10^−6 cm/s)”.

As to `CCCn1c(C)cc[n+]1CC(=O)Nc1c(C)cccc1C` [Compound 81], the IC50 in data set [1] was in the range of 1 to 3 µM. In data set [2], the “PAMPA (10^−6 cm/s)” value is given as “+ (<0.1 10^−6 cm/s)”.

As to `Cc1cccc(C)c1NC(=O)C[n+]1c(C)cc(C)n1C` [Compound 94], in data set [1], the IC50 is below 1 µM. Moreover, in data set [2], the “PAMPA (10^−6 cm/s)” value is listed as “+ (<0.1 10^−6 cm/s)”.

Regarding `CCCCn1ccc[n+]1CC(=O)Nc1c(C)cccc1C` [Compound 83], the IC50 in data set [1] is 1 to 3 µM. Besides, in data set [2], the “PAMPA (10^−6 cm/s)” value is “+ (<0.1 10^−6 cm/s)”.

Regarding `Cc1cccc(C)c1NC(=O)Cn1ccc[n+]1CC(=O)Nc1c(C)cccc1C` [Compound 109], in data set [1], the IC50 was below 1 µM. In addition, the “PAMPA (10^−6 cm/s)” value in data set [2] was “+ (<0.1 10^−6 cm/s)”.

On to `Cc1cccc(C)c1NC(=O)C[n+]1cccn1C1CCCC1` [Compound 71], for which, in data set [1], the IC50 was below 1 µM. In data set [2], the “PAMPA (10^−6 cm/s)” value is “+ (<0.1 10^−6 cm/s)”.

In the case of `COc1cc(OC)c[n+](CC(=O)Nc2c(C)cccc2C)c1` [Compound 98], the IC50 in data set [1] was 1 to 3 µM. Also, the “PAMPA (10^−6 cm/s)” value in data set [2] is on record as “+ (<0.1 10^−6 cm/s)”.

Turning to `Cc1cccc(C)c1NC(=O)C[n+]1cccc(N2CCCC2)c1` [Compound 51], the 50% inhibitory concentration (IC50) in data set [1] is below 1 µM. Further, the “PAMPA (10^−6 cm/s)” value in data set [2] is “++ (0.1-2.0 10^−6 cm/s)”.

As for `CCn1ccc(C)[n+]1CC(=O)Nc1c(C)cccc1C` [Compound 95], the IC50 in data set [1] lay in the range of 1 to 3 µM. Moreover, the “PAMPA (10^−6 cm/s)” value in data set [2] was “+ (<0.1 10^−6 cm/s)”.
